# Biological target: T1, RORγ-LBD (Homo sapiens, UniProt P51449)
# T1 construct: made in house; host or cells: SF9 cells (baculovirus)
# T1 sequence (P51449 269-508 limits assumed): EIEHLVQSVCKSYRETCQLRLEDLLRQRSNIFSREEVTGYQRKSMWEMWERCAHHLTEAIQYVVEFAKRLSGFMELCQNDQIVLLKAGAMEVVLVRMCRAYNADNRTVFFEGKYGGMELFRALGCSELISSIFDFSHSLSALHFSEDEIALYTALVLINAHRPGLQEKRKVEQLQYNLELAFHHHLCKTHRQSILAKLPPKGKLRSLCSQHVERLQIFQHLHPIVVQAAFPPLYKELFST
# Assay: RORγ-Ligand Binding Domain (LBD) TR-FRET Assay;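 on TR-FRET Assay Max Response: 665/615 nm ratio relative to signal without ursolic acid or compound set at 100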
# Type: biochemical
# Experimental: Assay procedures and results are described below.
# HIS-tagged RORγ-LBD protein was expressed in SF9 cells using a baculovirus expression system. The lysate was diluted in assay buffer (50 mM Tris pH 7.0, 50 mM KCl, 1 mM EDTA, 0.1 mM DTT, 0.01% BSA) to obtain RORγ-LBD final concentration of ˜3 nM in a 384-well assay plate (need to titrate for each batch of protein).
# A stock of biotinylated-LXXLL peptide from coactivator SRC1 (Biotin-[…]) was prepared in assay buffer and added to each well (200 nM final concentration). […] RORγ antagonist ursolic acid was also included at a final concentration of 2 μM. Compounds were diluted in DMSO and further diluted in assay buffer with a final DMSO concentration at 1%.
EC50 [nM],SMILES,TR-FRET Assay Max Response
< 500,"O=C(O)C1(C[C@H]2CN(S(=O)(=O)c3cccc(C(F)(F)F)c3)c3cc(-c4cccc(C(F)(F)F)n4)ccc3O2)COC1 [Compound 51D, (S)-3-((4-((3-(trifluoromethyl)-phenyl)sulfonyl)-6-(6-(trifluoro-methyl)pyridin-2-yl)-3,4-dihydro-2H-benzo[b][1,4]oxazin-2-yl)methyl)oxetane-3-carboxylic acid]",*** (The symbol “***” indicates a value in the range of greater than 150 to 200)
< 500,"O=C(O)[C@H]1C[C@@H]([C@H]2CN(S(=O)(=O)c3cccc(C(F)(F)F)c3)c3cc(-c4cc(F)ccc4F)ccc3O2)C1 [Compound 60H, (1R,3s)-3-((S)-6-(2,5-difluoro-phenyl)-4-((3-(trifluoromethyl)-phenyl)sulfonyl)-3,4-dihydro-2H-benzo[b][1,4]oxazin-2-yl)cyclobutane-1-carboxylic acid]",** (The symbol “**” indicates a value in the range of greater than 90 to 150)
< 500,"O=C(O)[C@H]1C[C@H]([C@H]2CN(S(=O)(=O)c3cccc(C(F)(F)F)c3)c3cc(-c4cc(F)ccc4F)ccc3O2)C1 [Compound 60I, (1S,3r)-3-((S)-6-(2,5-difluoro-phenyl)-4-((3-(trifluoromethyl)-phenyl)sulfonyl)-3,4-dihydro-2H-benzo[b][1,4]oxazin-2-yl)cyclobutane-1-carboxylic acid]",** (The symbol “**” indicates a value in the range of greater than 90 to 150)
< 500,"O=C(O)[C@H]1C[C@@H]([C@H]2CN(S(=O)(=O)c3cccc(C(F)(F)F)c3)c3cc(-c4cc(F)cc(OC(F)F)c4)ccc3O2)C1 [Compound 60J, (1R,3s)-3-((S)-6-(3-(difluoro-methoxy)-5-fluorophenyl)-4-((3-(trifluoromethyl)phenyl)-sulfonyl)-3,4-dihydro-2H-benzo[b][1,4]-oxazin-2-yl)cyclobutane-1-carboxylic acid]",*** (The symbol “***” indicates a value in the range of greater than 150 to 200)
< 500,"O=C(O)[C@H]1C[C@H]([C@H]2CN(S(=O)(=O)c3cccc(C(F)(F)F)c3)c3cc(-c4cc(F)cc(OC(F)F)c4)ccc3O2)C1 [Compound 60K, (1S,3r)-3-((S)-6-(3-(difluoro-methoxy)-5-fluorophenyl)-4-((3-(trifluoromethyl)phenyl)-sulfonyl)-3,4-dihydro-2H-benzo[b][1,4]oxazin-2-yl)cyclobutane-1-carboxylic acid]",** (The symbol “**” indicates a value in the range of greater than 90 to 150)

# The remaining lines, values behind:
SMILES,EC50 [nM],TR-FRET Assay Max Response
"C[C@H](C[C@H]1CN(S(=O)(=O)c2cccc(C(F)(F)F)c2)c2cc(-c3cc(F)cc(F)c3Cl)ccc2O1)C(=O)O [Compound 46M, (R)-3-((S)-6-(2-chloro-3,5-difluorophenyl)-4-((3-(trifluoromethyl)phenyl)sulfonyl)-3,4-dihydro-2H-benzo[b][1,4]oxazin-2-yl)-2-methylpropanoic acid]",< 500,*** (The symbol “***” indicates a value in the range of greater than 150 to 200)
"C[C@H](C[C@H]1CN(S(=O)(=O)c2cccc(C(F)(F)F)c2)c2cc(-c3cc(F)cc(OC(F)F)c3)ccc2O1)C(=O)O [Compound 46O, (R)-3-((S)-6-(3-(difluoro-methoxy)-5-fluorophenyl)-4-((3-(trifluoromethyl)phenyl)sulfonyl)-3,4-dihydro-2H-benzo[b][1,4]-oxazin-2-yl)-2-methylpropanoic acid]",< 500,*** (The symbol “***” indicates a value in the range of greater than 150 to 200)
"C[C@@H](C[C@H]1CN(S(=O)(=O)c2cccc(C(F)(F)F)c2)c2cc(-c3cc(F)cc(OC(F)F)c3)ccc2O1)C(=O)O [Compound 46P, (S)-3-((S)-6-(3-(difluoro-methoxy)-5-fluorophenyl)-4-((3-(trifluoromethyl)phenyl)sulfonyl)-3,4-dihydro-2H-benzo[b][1,4]-oxazin-2-yl)-2-methylpropanoic acid]",< 500,*** (The symbol “***” indicates a value in the range of greater than 150 to 200)
"C[C@H](C[C@H]1CN(S(=O)(=O)c2cccc(C(F)(F)F)c2)c2cc(-c3cc(Cl)cc(OC(F)F)c3)ccc2O1)C(=O)O [Compound 46Q, (R)-3-((S)-6-(3-chloro-5-(difluoromethoxy)phenyl)-4-((3-(trifluoromethyl)phenyl)sulfonyl)-3,4-dihydro-2H-benzo[b][1,4]-oxazin-2-yl)-2-methylpropanoic acid]",< 500,*** (The symbol “***” indicates a value in the range of greater than 150 to 200)
"C[C@@H](C[C@H]1CN(S(=O)(=O)c2cccc(C(F)(F)F)c2)c2cc(-c3cc(Cl)cc(OC(F)F)c3)ccc2O1)C(=O)O [Compound 46R, (S)-3-((S)-6-(3-chloro-5-(difluoromethoxy)phenyl)-4-((3-(trifluoromethyl)phenyl)sulfonyl)-3,4-dihydro-2H-benzo[b][1,4]-oxazin-2-yl)-2-methylpropanoic acid]",< 500,*** (The symbol “***” indicates a value in the range of greater than 150 to 200)
"C[C@@H](C[C@H]1CN(S(=O)(=O)c2cccc(C(F)(F)F)c2)c2cc(-c3cc(F)cc(F)c3)ccc2O1)C(=O)O [Compound 46S, (S)-3-((S)-6-(3,5-difluorophenyl)-4-((3-(trifluoromethyl)phenyl)-sulfonyl)-3,4-dihydro-2H-benzo[b][1,4]oxazin-2-yl)-2-methylpropanoic acid]",< 500,*** (The symbol “***” indicates a value in the range of greater than 150 to 200)
"C[C@@H](C[C@H]1CN(S(=O)(=O)c2cccc(C(F)(F)F)c2)c2cc(-c3cccc(C(F)(F)F)n3)ccc2O1)C(=O)O [Compound 46T, (S)-2-methyl-3-((S)-4-((3-(trifluoromethyl)phenyl)sulfonyl)-6-(6-(trifluoromethyl)pyridin-2-yl)-3,4-dihydro-2H-benzo[b][1,4]-oxazin-2-yl)propanoic acid]",< 500,*** (The symbol “***” indicates a value in the range of greater than 150 to 200)
"C[C@H](C[C@H]1CN(S(=O)(=O)c2cccc(C(F)(F)F)c2)c2cc(-c3cccc(C(F)(F)F)n3)ccc2O1)C(=O)O [Compound 46U, (R)-2-methyl-3-((S)-4-((3-(trifluoromethyl)phenyl)sulfonyl)-6-(6-(trifluoromethyl)pyridin-2-yl)-3,4-dihydro-2H-benzo[b][1,4]-oxazin-2-yl)propanoic acid]",< 500,*** (The symbol “***” indicates a value in the range of greater than 150 to 200)
"O=C(O)C1(C[C@H]2CN(S(=O)(=O)c3cccc(C(F)(F)F)c3)c3cc(-c4cc(F)ccc4F)ccc3O2)CCOCC1 [Compound 57, (S)-4-((6-(2,5-difluorophenyl)-4-((3-(trifluoromethyl)phenyl)sulfonyl)-3,4-dihydro-2H-benzo[b][1,4]oxazin-2-yl)methyl)tetrahydro-2H-pyran-4-carboxylic acid]",< 500,*** (The symbol “***” indicates a value in the range of greater than 150 to 200)

# — patent publication US10611740B2, “Aryl dihydro-2H-benzo[b][1,4]oxazine sulfonamide and related compounds for use as agonists of RORγ and the treatment of disease” (Lycera Corporation, priority 2015, dated 2020)
